Results published in PubChem BioAssay AID1919015 (Molecular Pharmacology Branch, DTP, NCI, 2023).

System: OVCAR-5 complex spheroids with HUVEC/MSC, viability, % test/control
Assay: Anticancer human tumor OVCAR-5 cell line growth inhibition [AhR];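 also: spheroids exposed to compounds for 7 days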;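 as to viability, T/C: 100% = DMSO vehicle control wells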
Details: for IC50: curve of first compound; for viability, T/C: stronger effect = lower value; active = viability on the fitted dose curve at most 10% of control; inactive = the rest
Outline: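 Complex tumor spheroids co-cultured with HUVEC and human MSC stroma; AhR antagonists tested in combination with standard-of-care and investigational agents. Top concentration at or near clinical Cmax (else 10 microM), half-log dilutions; growth expressed as percent test/control.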

[1] = second compound 0.1 µM, first compound 0.000949 µM
[2] = second compound 0.1 µM, first compound 0.003 µM
[3] = second compound 0.1 µM, first compound 0.00949 µM
[4] = second compound 0.1 µM, first compound 0.03 µM
[5] = second compound 0.1 µM, first compound 0.0949 µM
[6] = second compound 0.1 µM, first compound 0.3 µM
[7] = second compound 0.316 µM, first compound 0.000949 µM
[8] = second compound 0.316 µM, first compound 0.003 µM
[9] = second compound 0.316 µM, first compound 0.00949 µM
[10] = second compound 0.316 µM, first compound 0.03 µM
[11] = second compound 0.316 µM, first compound 0.0949 µM
[12] = second compound 0.316 µM, first compound 0.3 µM
[13] = second compound 1 µM, first compound 0.000949 µM
[14] = second compound 1 µM, first compound 0.003 µM
[15] = second compound 1 µM, first compound 0.00949 µM
[16] = second compound 1 µM, first compound 0.03 µM
[17] = second compound 1 µM, first compound 0.0949 µM
[18] = second compound 1 µM, first compound 0.3 µM
[19] = second compound 3.16 µM, first compound 0.000949 µM
[20] = second compound 3.16 µM, first compound 0.003 µM
[21] = second compound 3.16 µM, first compound 0.00949 µM
[22] = second compound 3.16 µM, first compound 0.03 µM
[23] = second compound 3.16 µM, first compound 0.0949 µM
[24] = second compound 3.16 µM, first compound 0.3 µM
[25] = second compound 10 µM, first compound 0.000949 µM
[26] = second compound 10 µM, first compound 0.003 µM
[27] = second compound 10 µM, first compound 0.00949 µM
[28] = second compound 10 µM, first compound 0.03 µM
[29] = second compound 10 µM, first compound 0.0949 µM
[30] = second compound 10 µM, first compound 0.3 µM
[31] = second compound 0.1 µM, first compound 0.0316 µM
[32] = second compound 0.1 µM, first compound 0.1 µM
[33] = second compound 0.1 µM, first compound 0.316 µM
[34] = second compound 0.1 µM, first compound 1 µM
[35] = second compound 0.1 µM, first compound 3.16 µM
[36] = second compound 0.1 µM, first compound 10 µM
[37] = second compound 0.316 µM, first compound 0.0316 µM
[38] = second compound 0.316 µM, first compound 0.1 µM
[39] = second compound 0.316 µM, first compound 0.316 µM
[40] = second compound 0.316 µM, first compound 1 µM
[41] = second compound 0.316 µM, first compound 3.16 µM
[42] = second compound 0.316 µM, first compound 10 µM
[43] = second compound 1 µM, first compound 0.0316 µM
[44] = second compound 1 µM, first compound 0.1 µM
[45] = second compound 1 µM, first compound 0.316 µM
[46] = second compound 1 µM, first compound 1 µM
[47] = second compound 1 µM, first compound 3.16 µM
[48] = second compound 1 µM, first compound 10 µM
[49] = second compound 3.16 µM, first compound 0.0316 µM
[50] = second compound 3.16 µM, first compound 0.1 µM
[51] = second compound 3.16 µM, first compound 0.316 µM
[52] = second compound 3.16 µM, first compound 1 µM
[53] = second compound 3.16 µM, first compound 3.16 µM
[54] = second compound 3.16 µM, first compound 10 µM
[55] = second compound 10 µM, first compound 0.0316 µM
[56] = second compound 10 µM, first compound 0.1 µM
[57] = second compound 10 µM, first compound 0.316 µM
[58] = second compound 10 µM, first compound 1 µM
[59] = second compound 10 µM, first compound 3.16 µM
[60] = second compound 10 µM, first compound 10 µM

CC(C)CC(NC(=O)C(Cc1ccccc1)NC(=O)c1cnccn1)B(O)O (stereo not given) + Cc1cncc(-c2nc(NCCc3c[nH]c4ccccc34)c3ncn(C(C)C)c3n2)c1
inactive: viability, T/C [1] 96.8% | viability, T/C [2] 102% | viability, T/C [3] 102% | viability, T/C [4] 74.7% | viability, T/C [5] 32.2% | viability, T/C [6] 27.2% | viability, T/C [7] 96.3% | viability, T/C [8] 100% | viability, T/C [9] 101% | viability, T/C [10] 72.1% | viability, T/C [11] 33.2% | viability, T/C [12] 23.6% | viability, T/C [13] 96.7% | viability, T/C [14] 95% | viability, T/C [15] 96.6% | viability, T/C [16] 68.2% | viability, T/C [17] 33.6% | viability, T/C [18] 25% | viability, T/C [19] 82.9% | viability, T/C [20] 76.3% | viability, T/C [21] 75.9% | viability, T/C [22] 59.5% | viability, T/C [23] 25.6% | viability, T/C [24] 15.4% | viability, T/C [25] 19.6% | viability, T/C [26] 24.7% | viability, T/C [27] 15%
41.1 nM: IC50 (second compound 3.16 µM)
58.1 nM: IC50 (second compound 0.1 µM)
< 0.949 nM: IC50 (second compound 10 µM)
active: viability, T/C [28] 1.7% | viability, T/C [29] 0.78% | viability, T/C [30] 0.54%
57.2 nM: IC50 (second compound 0.316 µM)
54.6 nM: IC50 (second compound 1 µM)

CCc1c2c(nc3ccc(O)cc13)-c1cc3c(c(=O)n1C2)COC(=O)[C@]3(O)CC + Cc1cncc(-c2nc(NCCc3c[nH]c4ccccc34)c3ncn(C(C)C)c3n2)c1
inactive: viability, T/C [1] 83.8% | viability, T/C [2] 59% | viability, T/C [3] 46.3% | viability, T/C [4] 44.8% | viability, T/C [5] 23.4% | viability, T/C [6] 9.85% | viability, T/C [7] 80.1% | viability, T/C [8] 57.1% | viability, T/C [9] 47.4% | viability, T/C [10] 42.3% | viability, T/C [11] 22.8% | viability, T/C [12] 9.22% | viability, T/C [13] 73.1% | viability, T/C [14] 51.4% | viability, T/C [15] 50.7% | viability, T/C [16] 42.3% | viability, T/C [17] 21.5% | viability, T/C [18] 9.57% | viability, T/C [19] 56.8% | viability, T/C [20] 43.8% | viability, T/C [21] 48.4% | viability, T/C [22] 40.2% | viability, T/C [23] 21.9%
3.77 nM: IC50 (second compound 3.16 µM)
< 0.949 nM: IC50 (second compound 10 µM)
active: viability, T/C [24] 8.5% | viability, T/C [25] 4.99% | viability, T/C [26] 5.37% | viability, T/C [27] 9.12% | viability, T/C [28] 7.96% | viability, T/C [29] 4.98% | viability, T/C [30] 2.23%
9.09 nM: IC50 (second compound 0.316 µM)
8.08 nM: IC50 (second compound 1 µM)
9.8 nM: IC50 (second compound 0.1 µM)

COc1cc(Nc2ncc3c(n2)-c2ccc(Cl)cc2C(c2c(F)cccc2OC)=NC3)ccc1C(=O)O + Cc1cncc(-c2nc(NCCc3c[nH]c4ccccc34)c3ncn(C(C)C)c3n2)c1
active: viability, T/C [55] 9.88% | viability, T/C [56] 9.9% | viability, T/C [57] 8.88% | viability, T/C [58] 9.21% | viability, T/C [59] 8.92% | viability, T/C [60] 12.2%
2650 nM: IC50 (second compound 0.1 µM)
< 31.6 nM: IC50 (second compound 10 µM)
2740 nM: IC50 (second compound 1 µM)
875 nM: IC50 (second compound 3.16 µM)
3040 nM: IC50 (second compound 0.316 µM)
inactive: viability, T/C [31] 88.1% | viability, T/C [32] 83.6% | viability, T/C [33] 63.6% | viability, T/C [34] 58% | viability, T/C [35] 49.2% | viability, T/C [36] 45.6% | viability, T/C [37] 87.3% | viability, T/C [38] 80.9% | viability, T/C [39] 63.3% | viability, T/C [40] 59.9% | viability, T/C [41] 50.2% | viability, T/C [42] 42.5% | viability, T/C [43] 85.5% | viability, T/C [44] 79% | viability, T/C [45] 60.5% | viability, T/C [46] 59.5% | viability, T/C [47] 48.3% | viability, T/C [48] 44.1% | viability, T/C [49] 69.8% | viability, T/C [50] 68.6% | viability, T/C [51] 56.7% | viability, T/C [52] 49.8% | viability, T/C [53] 46.9% | viability, T/C [54] 44%

Nc1ccccc1NC(=O)c1ccc(CNC(=O)OCc2cccnc2)cc1 + Cc1cncc(-c2nc(NCCc3c[nH]c4ccccc34)c3ncn(C(C)C)c3n2)c1
724 nM: IC50 (second compound 1 µM)
549 nM: IC50 (second compound 3.16 µM)
834 nM: IC50 (second compound 0.1 µM)
731 nM: IC50 (second compound 0.316 µM)
active: viability, T/C [36] 9.54% | viability, T/C [42] 7.96% | viability, T/C [48] 7.92% | viability, T/C [54] 6.41% | viability, T/C [57] 13.1% | viability, T/C [58] 14.3% | viability, T/C [59] 2.83% | viability, T/C [60] 0.51%
< 31.6 nM: IC50 (second compound 10 µM)
inactive: viability, T/C [31] 86% | viability, T/C [32] 84.7% | viability, T/C [33] 69.5% | viability, T/C [34] 47.4% | viability, T/C [35] 19.9% | viability, T/C [37] 86% | viability, T/C [38] 79.5% | viability, T/C [39] 66.8% | viability, T/C [40] 44.3% | viability, T/C [41] 20.1% | viability, T/C [43] 80.4% | viability, T/C [44] 77.2% | viability, T/C [45] 68.8% | viability, T/C [46] 42.8% | viability, T/C [47] 16.6% | viability, T/C [49] 71.2% | viability, T/C [50] 71.4% | viability, T/C [51] 62.7% | viability, T/C [52] 36% | viability, T/C [53] 13.5% | viability, T/C [55] 10.4% | viability, T/C [56] 10.3%

O=C(C=Cc1cccc(S(=O)(=O)Nc2ccccc2)c1)NO + Cc1cncc(-c2nc(NCCc3c[nH]c4ccccc34)c3ncn(C(C)C)c3n2)c1
inactive: viability, T/C [31] 95.8% | viability, T/C [32] 87.4% | viability, T/C [33] 70.6% | viability, T/C [34] 52.4% | viability, T/C [35] 30.4% | viability, T/C [37] 95.1% | viability, T/C [38] 88.1% | viability, T/C [39] 70.2% | viability, T/C [40] 52.1% | viability, T/C [41] 24.9% | viability, T/C [43] 87.9% | viability, T/C [44] 88.3% | viability, T/C [45] 70% | viability, T/C [46] 55.3% | viability, T/C [47] 25.1% | viability, T/C [49] 79.4% | viability, T/C [50] 75.8% | viability, T/C [51] 66% | viability, T/C [52] 49% | viability, T/C [53] 23.1% | viability, T/C [55] 23.3% | viability, T/C [56] 26.7% | viability, T/C [57] 23.4% | viability, T/C [58] 24.9% | viability, T/C [59] 16.4% | viability, T/C [60] 2.82%
891 nM: IC50 (second compound 3.16 µM)
1130 nM: IC50 (second compound 0.1 µM) | IC50 (second compound 1 µM)
1010 nM: IC50 (second compound 0.316 µM)
active: viability, T/C [36] 7.81% | viability, T/C [42] 6.95% | viability, T/C [48] 6.35% | viability, T/C [54] 5.52%
< 31.6 nM: IC50 (second compound 10 µM)

O=C(c1cc(Cc2n[nH]c(=O)c3ccccc23)ccc1F)N1CCN(C(=O)C2CC2)CC1 + Cc1cncc(-c2nc(NCCc3c[nH]c4ccccc34)c3ncn(C(C)C)c3n2)c1
< 31.6 nM: IC50 (second compound 10 µM)
inactive: viability, T/C [31] 93.8% | viability, T/C [32] 97.7% | viability, T/C [33] 93.7% | viability, T/C [34] 87.5% | viability, T/C [35] 91.5% | viability, T/C [36] 86.8% | viability, T/C [37] 93.9% | viability, T/C [38] 98.7% | viability, T/C [39] 95.4% | viability, T/C [40] 89.9% | viability, T/C [41] 84.3% | viability, T/C [42] 83.7% | viability, T/C [43] 84.5% | viability, T/C [44] 87.7% | viability, T/C [45] 91.6% | viability, T/C [46] 87% | viability, T/C [47] 86.2% | viability, T/C [48] 77.3% | viability, T/C [49] 78.2% | viability, T/C [50] 77.8% | viability, T/C [51] 75.2% | viability, T/C [52] 73.2% | viability, T/C [53] 71.8% | viability, T/C [54] 64.8% | viability, T/C [55] 14.8% | viability, T/C [56] 12.9% | viability, T/C [57] 15% | viability, T/C [58] 12% | viability, T/C [59] 13.7% | viability, T/C [60] 13.1%
> 10000 nM: IC50 (second compound 0.1 µM) | IC50 (second compound 0.316 µM) | IC50 (second compound 1 µM) | IC50 (second compound 3.16 µM)
